We go through five molecules from the NIST ThermoML archive (doi:10.1016/j.jct.2010.11.004).

Numbers after ± are expanded uncertainties.

For this series the following is noted: 298.15 K; 101.33 kPa; Liquid; Vibrating tube method.
Take `CCCCCCCCC(C)=O` [2-decanone]: the mass density (usually the mass of a sample divided by its volume) stood at 820.63 ± 0.24 kg/m3. In the case of `CCCCCOCCCCC` [dipentyl ether], the mass density came to 779.1 ± 0.24 kg/m3. To `CCCCCCCCCCCC` [dodecane] belongs 745.28 ± 0.25 kg/m3; to `CCCCCCCCCCCCCCCC` [hexadecane], 770.31 ± 0.24 kg/m3. To `CCCCCCCCCCCCCC` [tetradecane] belongs 760.2 ± 0.24 kg/m3.
